The target of series [1] is T1, rhGAA (Homo sapiens, UniProt P10253).
T1 construct: purchased Genzyme Co, Cambridge, Mass., USA
In words: Thermal stability scans of rhGAA (SYPRO Orange). Format: binding. As to conditions: pH 7.4; for Tm of rhGAA in the presence of chaperone: NAC 10 mM, DNJ 0.1 mM. The protocol:
Thermal stability scans of rhGAA were performed as described in [Flanagan et al. 2009]. Briefly, 2.5 μg of enzyme were incubated in the absence and in the presence of NAC and DNJ, 10 mM and 0.1 mM, respectively, SYPRO Orange dye, and sodium phosphate 25 mM buffer, 150 mM NaCl, pH 7.4 or sodium acetate 25 mM buffer, 150 mM NaCl, pH 5.2. Thermal stability scans were performed at 1° C./min in the range 25-95° C. in a Real Time LightCycler (Bio-Rad). SYPRO Orange fluorescence was normalized to maximum fluorescence value within each scan to obtain relative fluorescence. Melting temperatures were calculated according to (Niesen et al. 2007).

Series [2] has as its target T1, rhGAA. Briefly: Effect of compounds on rhGAA stability at neutral pH (residual α-glucosidase activity). In kind it is biochemical. As to conditions: pH 7.0, 37° C., 0.1-10 mM, up to 48 hrs. The protocol: (§1) The standard activity assay of rhGAA was performed in 200 μl by using 5 μg of enzyme at 37° C. in 100 mM sodium acetate pH 4.0 and 20 mM 4NP-Glc. The reaction was started by adding the enzyme; after suitable incubation time (1-2 min) the reaction was blocked by adding 800 μL of 1 M sodium carbonate pH 10.2. Absorbance was measured at 420 nm at room temperature, the extinction coefficient to calculate enzymatic units was 17.2 mM^−1 cm^−1. One enzymatic unit is defined as the amount of enzyme catalyzing the conversion of 1 μmol substrate into product in 1 min, under the indicated conditions.
(§2) The effect of different pHs on the rhGAA stability was measured by preparing reaction mixtures containing 0.75 mg mL^−1 of enzyme in the presence of 50 mM citrate/phosphate (pH 3.0-7.0) at a certain pH. After incubations at 37° C., aliquots were withdrawn at the times indicated and the residual α-glucosidase activity was measured with the standard assay. To test the effect on the pH stability of rhGAA of chemical chaperons and of the other molecules, experiments were performed as described above by adding to the reaction mixtures the amounts of the different compounds indicated in the text.

Series [3] has as its target T1, rhGAA. In words: Effect on rhGAA enzyme activity (standard activity assay). In kind it is biochemical. As to conditions: three concentrations (FIG. 4). The protocol: as §1
Series [4] deals with T2, rh-alpha-Gal A in Fabry disease cell lines (Homo sapiens, UniProt P06280).
T2 construct: purchased Genzyme Co, Cambridge, Mass., USA
T2 sequence (P06280 32-429): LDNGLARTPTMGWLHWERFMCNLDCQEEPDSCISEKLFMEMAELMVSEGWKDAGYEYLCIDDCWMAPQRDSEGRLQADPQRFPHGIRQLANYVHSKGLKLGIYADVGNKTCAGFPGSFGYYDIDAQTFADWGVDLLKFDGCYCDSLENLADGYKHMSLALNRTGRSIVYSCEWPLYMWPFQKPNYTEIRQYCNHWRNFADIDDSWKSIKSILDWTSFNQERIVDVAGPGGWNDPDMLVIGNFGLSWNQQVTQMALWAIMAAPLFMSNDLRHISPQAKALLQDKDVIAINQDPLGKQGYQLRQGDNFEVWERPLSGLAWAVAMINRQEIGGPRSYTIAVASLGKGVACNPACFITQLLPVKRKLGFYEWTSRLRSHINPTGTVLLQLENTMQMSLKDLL
Briefly: Correction by rh-alpha-Gal A in Fabry disease cell lines with chaperone. In kind it is cell-based. As to conditions: three Fabry disease cell lines. The protocol: Fibroblasts from PD and Fabry disease patients were derived from skin biopsies after obtaining the informed consent of patients. Normal age-matched control fibroblasts were available in the laboratory of the Department of Pediatrics, Federico II University of Naples. All cell lines were grown at 37° C. with 5% CO2 in Dulbecco's modified Eagle's medium (Invitrogen, Grand Island, N.Y.) and 10% fetal bovine serum (Sigma-Aldrich, St Louis, Mo.), supplemented with 100 U/ml penicillin and […] streptomycin.

Series [5] deals with T3, rhGAA in PD fibroblasts (Homo sapiens, UniProt P10253).
T3 construct: purchased Genzyme Co, Cambridge, Mass., USA
Briefly: Correction of GAA activity by rhGAA in PD fibroblasts with chaperone (synergy). As to conditions: patient 3 (FIG. 7). Format: cell-based. The procedure: To study the rhGAA uptake and correction of GAA activity in PD fibroblasts, the cells were incubated with […] rhGAA for 24 hours, in the absence or in the presence of 10 mM NAC. Untreated cells or were used for comparison. After the incubation the cells were harvested by trypsinization and disrupted by 5 cycles of freezing and thawing.
GAA activity was assayed by using the fluorogenic substrate 4-methylumbelliferyl-alpha-D-glucopyranoside (Sigma-Aldrich) according to a published procedure [Porto et al, 2009]. Briefly, 25 micrograms of protein were incubated with the fluorogenic substrate (2 mM) in 0.2 M acetate buffer, pH 4.0, for 60 minutes in incubation mixtures of 100 μl. The reaction was stopped by adding 700 μl of glycine-carbonate buffer, pH 10.7. Fluorescence was read at 365 nm (excitation) and 450 nm (emission) on a Turner Biosystems Modulus fluorometer. Protein concentration in cell homogenates was measured by the Bradford assay (Biorad, Hercules, Calif.).
To study GAA immunoreactive material, fibroblast extracts were subjected to western blot analysis. The cells were harvested, washed in phosphate-buffered saline, resuspended in water, and disrupted by five cycles of freeze-thawing. Equal amounts (20 μg protein) of fibroblast extracts were subjected to sodium dodecyl sulfate polyacrylamide gel electrophoresis and proteins were transferred to PVD membrane (Millipore, Billerica, Mass.). An anti-human GAA antiserum was used as primary antibody to detect GAA polypeptides; to detect β-actin, a monoclonal mouse antibody was used Immunoreactive proteins were detected by chemiluminescence (ECL, Amersham, Freiburg, Germany)
To study the distribution of AlexaFluor546 labeleld GAA, PD fibroblasts grown on coverslips were fixed using methanol, permeabilized using 0.1% saponin and locked with 0.01% saponin, 1% fetal bovine serum diluted in phosphate-buffered saline for 1 hour. The cells were incubated with the primary antibodies, with secondary antibodies in blocking solution and then mounted with vectashield mounting medium (Vector Laboratories, Burlingame, Calif.). Samples were examined with a Zeiss LSM 5 10 laser scanning confocal microscope. Authors used Argon/2 (458, 477, 488, and 514 nanometers) and HeNe1 (543 nanometers) excitation lasers, which were switched-on separately to reduce crosstalk of the two fluorochromes. The green and the red emissions were separated by a dichroic splitter (FT 560) and filtered (515-540-nm bandpass filter for green and >610-nm long pass filter for red emission). A threshold was applied to the images to exclude ˜99% of the signal found in control images.

Series [6] can be described thus: Effect of pH on rhGAA stability. Format: physicochemical. The protocol:
as §1, §2

With `CCCCN1C[C@H](O)[C@@H](O)[C@H](O)[C@H]1CO` [NB-DNJ, N-butyl-deoxynojirimycin, reference compound], the “Tm of rhGAA in the presence of chaperone” value in series [1] was found to be 65.9±0.3 °C.
Take `CC(=O)NCC(=O)O` [NAG, N-acetyl glycine]: the “stabilization of rhGAA at neutral pH” value in series [2] is “remarkable stabilization”. Moreover, in series [3], the “effect on the activity of the enzyme (rhGAA)” value is listed as “no effect”.
Turning to `OC[C@H]1NC[C@H](O)[C@@H](O)[C@H]1O` [DGJ, 1-deoxy-galactonojiirimycin, reference compound], the “enhancement of correction by rh-alpha-Gal A” value in series [4] was “largely enhanced”.
As to `N[C@@H](CS)C(=O)O` [Cys, reference compound], the “stabilization of rhGAA at neutral pH” value in series [2] was “did not prevent enzyme inactivation”.
Regarding `NCC(=O)O` [Gly, reference compound], in series [2], the “stabilization of rhGAA at neutral pH” value is given as “did not prevent enzyme inactivation”.
For `OC[C@H]1NC[C@H](O)[C@@H](O)[C@@H]1O` [DNJ, 1-deoxy-nojiirimycin, reference compound], in series [1], the “Tm of rhGAA in the presence of chaperone” value stood at 65.9±0.3 °C.
Take `Oc1ccc(C=Cc2cc(O)cc(O)c2)cc1` [resveratrol, reference compound]: the “enhancement of rhGAA in PD cultured fibroblasts” value in series [5] was “did not enhance”.
For the compound `CC(=O)N[C@@H](CO)C(=O)O` [NAS, N-acetyl serine], in series [2], the “stabilization of rhGAA at neutral pH” value is recorded as “remarkable stabilization”. In series [3], the “effect on the activity of the enzyme (rhGAA)” value is on record as “no effect”.
On to `OCCS` [2-mercapto-ethanol, reference compound], for which the “stabilization of rhGAA at neutral pH” value in series [2] is reported as “did not prevent enzyme inactivation”.
In the case of “rhGAA: recombinant human GAA (alglucosidase, Myozyme) from Genzyme, used for enzyme replacement therapy”, the “Tm of rhGAA in the absence of chaperone” value in series [1] was 50.2±0.1 °C. Moreover, the “rhGAA residual activity after 4 hours” value in series [6] (pH 3.0 or 7.0, 37° C., 4 hours) was “approximately 50%”. Also, in series [6] (pH 3.0 or 7.0, 37° C., 16 hours), the “rhGAA residual activity after 16 hours” value was “less than 10%”. For the same compound, the “rhGAA stability at pH 5.0” value in series [6] (pH 5.0, 37° C., up to 24 hours) is reported as “stable”.
Regarding `N[C@@H](CO)C(=O)O` [Ser, reference compound], the “stabilization of rhGAA at neutral pH” value in series [2] is listed as “did not prevent enzyme inactivation”.
Consider `O=C(O[C@@H]1Cc2c(O)cc(O)cc2O[C@@H]1c1cc(O)c(O)c(O)c1)c1cc(O)c(O)c(O)c1` [epigallo chatechingallate, epigallo catechingallate, reference compound], for which, in series [5], the “enhancement of rhGAA in PD cultured fibroblasts” value is “did not enhance”.

Values taken from patent US20150147309A1, “ALLOSTERIC CHAPERONES AND USES THEREOF” (Fondazione Telethon, priority 2012, published 2015).
